Results on 26 compounds are retold here after ChEMBL document CHEMBL4680137, “Synthesis and biological evaluation of some novel 1,2,3-triazole hybrids of myrrhanone B isolated from Commiphora mukul gum resin: Identification of potent antiproliferative leads active against prostate cancer cells (PC-3)” (Eur J Med Chem, 2020).

Assay [1] can be described thus: Inhibition of LPS-induced IL-1beta expression in human U-937 cells preincubated for 1 hr followed by LPS addition and measured after 24 hrs by ELISA. Type of assay: functional, cell-based.
The next assay concerns DU-145. Briefly: Antiproliferative activity against human DU-145 cells assessed as reduction in cell viability after 48 hrs by MTT assay. As to conditions: DU-145, 48 h. Type of assay: functional, cell-based.
Assay [2] in a line: Inhibition of LPS-induced TNF-alpha expression in human U-937 cells preincubated for 1 hr followed by LPS addition and measured after 24 hrs by ELISA. It counts as functional, cell-based.
The next assay has as its system L132. Briefly: Cytotoxicity against human L132 cells assessed as reduction in cell viability after 48 hrs by MTT assay. Type of assay: cell-based. As to conditions: L132, 48 h.
The subject of the next assay is A549. Briefly: Antiproliferative activity against human A549 cells assessed as reduction in cell viability after 48 hrs by MTT assay. As to conditions: A549, 48 h. It counts as functional, cell-based.
For a further assay, the system named is MDA-MB-231. Briefly: Antiproliferative activity against human MDA-MB-231 cells assessed as reduction in cell viability after 48 hrs by MTT assay. As to conditions: MDA-MB-231, 48 h. It counts as functional, cell-based.
The subject of the next assay is U-87 MG. Briefly: Antiproliferative activity against human U87 cells assessed as reduction in cell viability after 48 hrs by MTT assay. It counts as functional, cell-based, U-87MG ATCC.
A short description of assay [3]: Inhibition of Saccharomyces cerevisiae alpha-glucosidase using p-nitophenyl alpha […]D-glucoside incubated for 45 mins.
A further assay concerns SiHa. Briefly: Antiproliferative activity against human SiHa cells assessed as reduction in cell viability after 48 hrs by MTT assay. Type of assay: functional, cell-based.
In the next assay the test system is PC-3. Briefly: Antiproliferative activity against human PC3 cells assessed as reduction in cell viability after 48 hrs by MTT assay. It counts as functional, cell-based. As to conditions: PC-3, 48 h.
The test system of a further assay is HT-29. Briefly: Antiproliferative activity against human HT-29 cells assessed as reduction in cell viability after 48 hrs by MTT assay. Type of assay: functional, cell-based. As to conditions: HT-29, 48 h.

Take `COc1ccccc1-n1cc(COC(=O)/C(C)=C/CC/C(C)=C/CC/C(C)=C/CC[C@@H]2[C@@]3(C)CCC(=O)C(C)(C)[C@H]3CC[C@@]2(C)O)nn1`: the IC50 in assay [1] was 9.06 µM; in the assay with DU-145, over 150 µM; in assay [2], 11.7 µM; in the assay on L132, over 150 µM; with A549 it was over 150 µM; in the assay with MDA-MB-231, over 150 µM.

As for `C/C(=C\CC/C(C)=C/CC[C@@H]1[C@@]2(C)CCC(=O)C(C)(C)[C@H]2CC[C@@]1(C)O)CC/C=C(\C)C(=O)OCc1cn(C[C@@H]2O[C@H](n3ccc(=O)[nH]c3=O)[C@H]3OC(C)(C)O[C@H]32)nn1`, the IC50 in assay [1] is 14.1 µM; in the assay on DU-145, over 150 µM; in [2], 8.1 µM; in the assay on L132, over 150 µM; with A549, 15.3 µM; in the assay with MDA-MB-231, over 150 µM.

In the case of `C/C(=C\CC/C(C)=C/CC[C@@H]1[C@@]2(C)CCC(=O)C(C)(C)[C@H]2CC[C@@]1(C)O)CC/C=C(\C)C(=O)OCc1cn(-c2ccc(F)cc2)nn1`, the IC50 in the assay with DU-145, with U-87 MG, with L132 and in the assay with A549 was over 150 µM throughout.

In the case of `C/C(=C\CC/C(C)=C/CC[C@@H]1[C@@]2(C)CCC(=O)C(C)(C)[C@H]2CC[C@@]1(C)O)CC/C=C(\C)C(=O)OCc1cn(-c2cccc(Br)c2)nn1`, the IC50 in the assay on DU-145, in the assay on L132 and in the assay on A549 was over 150 µM each time.

With `C/C(=C\CC/C(C)=C/CC[C@@H]1[C@@]2(C)CCC(=O)C(C)(C)[C@H]2CC[C@@]1(C)O)CC/C=C(\C)C(=O)OCc1cn(-c2cccc(F)c2)nn1`, the IC50 with DU-145 was over 150 µM; in the assay on U-87 MG, over 150 µM; in assay [3] it was 4.12 µM; in the assay on A549 it was 124 µM; with SiHa it was over 150 µM; in the assay on MDA-MB-231, 144 µM.

Consider `C/C(=C\CC/C(C)=C/CC[C@@H]1[C@@]2(C)CCC(=O)C(C)(C)[C@H]2CC[C@@]1(C)O)CC/C=C(\C)C(=O)OCc1cn(-c2ccccc2F)nn1`, for which the IC50 in the assay on DU-145, in the assay with L132, in the assay on A549 and in the assay on MDA-MB-231 was over 150 µM each time.

Turning to `C/C(=C\CC/C(C)=C/CC[C@@H]1[C@@]2(C)CCC(=O)C(C)(C)[C@H]2CC[C@@]1(C)O)CC/C=C(\C)C(=O)OCc1cn(-c2ccccc2)nn1`, the IC50 in [1] was 9.87 µM; in the assay on DU-145, 95.5 µM; in assay [2] it was 9.3 µM; in assay [3], 43.5 µM; in the assay with L132, over 150 µM; with A549, over 150 µM. For the same compound, the results for the IC50 in the assay with SiHa and in the assay on MDA-MB-231 were 149 µM and over 150 µM, respectively.

On to `C/C(=C\CC/C(C)=C/CC[C@@H]1[C@@]2(C)CCC(=O)C(C)(C)[C@H]2CC[C@@]1(C)O)CC/C=C(\C)C(=O)OCc1cn(-c2ccccc2Cl)nn1`, for which the IC50 in assay [1] is 8.95 µM; in the assay with DU-145, over 150 µM; in assay [2] it was 9.58 µM; in [3] it was 106 µM; with L132, over 150 µM; with A549, over 150 µM. For the same compound, the IC50 in the assay on MDA-MB-231 is over 150 µM.

Regarding `C/C(=C\CC/C(C)=C/CC[C@@H]1[C@@]2(C)CCC(=O)C(C)(C)[C@H]2CC[C@@]1(C)O)CC/C=C(\C)C(=O)OCc1cn(-c2ccc(Cl)cc2)nn1`, the IC50 in assay [1] is 66.6 µM; with DU-145, over 150 µM; in assay [2], 9.12 µM; with L132, over 150 µM; with A549 it was over 150 µM.

Consider `C/C(=C\CC/C(C)=C/CC[C@@H]1[C@@]2(C)CCC(=O)C(C)(C)[C@H]2CC[C@@]1(C)O)CC/C=C(\C)C(=O)OCc1cn(-c2cccc(C(F)(F)F)c2)nn1`, for which the IC50 is over 150 µM in the assay with DU-145, 13.4 µM in assay [3], over 150 µM in the assay on A549 and over 150 µM with MDA-MB-231.

`C/C(=C\CC/C(C)=C/CC[C@@H]1[C@@]2(C)CCC(=O)C(C)(C)[C@H]2CC[C@@]1(C)O)CC/C=C(\C)C(=O)OCc1cn(-c2ccccc2C)nn1`: the IC50 in the assay with DU-145, with L132, in the assay with A549 and in the assay with MDA-MB-231 was over 150 µM throughout.

`C/C(=C\CC/C(C)=C/CC[C@@H]1[C@@]2(C)CCC(=O)C(C)(C)[C@H]2CC[C@@]1(C)O)CC/C=C(\C)C(=O)OCc1cn(-c2cccc([N+](=O)[O-])c2)nn1`: the IC50 in the assay with DU-145 is over 150 µM; in the assay on U-87 MG it was 134 µM; in assay [3] it was 2.77 µM; with A549, over 150 µM; with PC-3 it was 24.8 µM.

Consider `C#CCOC(=O)/C(C)=C/CC/C(C)=C/CC/C(C)=C/CC[C@@H]1[C@@]2(C)CCC(=O)C(C)(C)[C@H]2CC[C@@]1(C)O`, for which the IC50 in the assay on DU-145 was 46.1 µM; with U-87 MG it was over 150 µM; with HT-29 it was 27.4 µM; in the assay on A549, 45.1 µM; in the assay on MDA-MB-231, 114 µM; in the assay on PC-3, 18.9 µM.

Take `C/C(=C\CC/C(C)=C/CC[C@@H]1[C@@]2(C)CCC(=O)C(C)(C)[C@H]2CC[C@@]1(C)O)CC/C=C(\C)C(=O)OCc1cn(-c2ccc(Br)cc2)nn1`: the IC50 is over 150 µM in the assay on DU-145; over 150 µM in the assay with U-87 MG; 11.3 µM in assay [3]; over 150 µM with L132; over 150 µM with A549.

As to `COc1ccc(-n2cc(COC(=O)/C(C)=C/CC/C(C)=C/CC/C(C)=C/CC[C@@H]3[C@@]4(C)CCC(=O)C(C)(C)[C@H]4CC[C@@]3(C)O)nn2)cc1`, the IC50 was 135 µM with DU-145, over 150 µM with L132, over 150 µM with A549 and over 150 µM with MDA-MB-231.

Consider `C/C(=C\CC/C(C)=C/CC[C@@H]1[C@@]2(C)CCC(=O)C(C)(C)[C@H]2CC[C@@]1(C)O)CC/C=C(\C)C(=O)OCc1cn(-c2ccc(C(C)(C)C)cc2)nn1`, for which the IC50 was over 150 µM with DU-145; over 150 µM with U-87 MG; 12.6 µM in assay [3]; 65.8 µM in the assay with L132; over 150 µM in the assay on A549.

For the compound `C/C(=C\CC/C(C)=C/CC[C@@H]1[C@@]2(C)CCC(=O)C(C)(C)[C@H]2CC[C@@]1(C)O)CC/C=C(\C)C(=O)OCc1cn(-c2ccc(C(F)(F)F)cc2)nn1`, the IC50 in the assay with L132, in the assay with A549 and with MDA-MB-231 was over 150 µM each time.

`C/C(=C\CC/C(C)=C/CC[C@@H]1[C@@]2(C)CCC(=O)C(C)(C)[C@H]2CC[C@@]1(C)O)CC/C=C(\C)C(=O)OCc1cn(-c2ccccc2Br)nn1`: the IC50 with DU-145, in the assay on L132, in the assay with A549 and in the assay with MDA-MB-231 was over 150 µM throughout.

Consider `C/C(=C\CC/C(C)=C/CC[C@@H]1[C@@]2(C)CCC(=O)C(C)(C)[C@H]2CC[C@@]1(C)O)CC/C=C(\C)C(=O)OCc1cn(-c2cccc(Cl)c2)nn1`, for which the concentration for half-maximal inhibition (IC50) turned out to be 103 µM in the assay with DU-145; 91.8 µM in the assay with U-87 MG; 7.91 µM in assay [3]; 94.2 µM in the assay with L132; 147 µM in the assay on A549; 111 µM with SiHa. Besides, the IC50 in the assay on MDA-MB-231 turned out to be 103 µM.

For the compound `C/C(=C\CC/C(C)=C/CC[C@@H]1[C@@]2(C)CCC(=O)C(C)(C)[C@H]2CC[C@@]1(C)O)CC/C=C(\C)C(=O)OCc1cn(-c2ccc(C)cc2)nn1`, the IC50 in the assay on DU-145, with L132 and with A549 was over 150 µM each time.

With `C[C@]12C=CC(=O)C=C1CC[C@@H]1[C@@H]2[C@@H](O)C[C@@]2(C)[C@H]1CC[C@]2(O)C(=O)CO` [PREDNISOLONE], the IC50 stood at 0.44 µM in [1] and 0.64 µM in [2].

For the compound `COc1cccc(-n2cc(COC(=O)/C(C)=C/CC/C(C)=C/CC/C(C)=C/CC[C@@H]3[C@@]4(C)CCC(=O)C(C)(C)[C@H]4CC[C@@]3(C)O)nn2)c1`, the IC50 is over 150 µM in the assay with DU-145, 17.6 µM in assay [3] and over 150 µM with A549.

Compound `C[C@H]1O[C@H](O[C@H]2[C@H](O)[C@@H](O)[C@@H](O[C@H]3[C@H](O)[C@@H](O)C(O)O[C@@H]3CO)O[C@@H]2CO)[C@H](O)[C@@H](O)[C@@H]1N[C@H]1C=C(CO)[C@@H](O)[C@H](O)[C@H]1O` (some centres not stated) [ACARBOSE] showed an IC50 in assay [3] of 2120 µM.

Take `C/C(=C\CC/C(C)=C/CC[C@@H]1[C@@]2(C)CCC(=O)C(C)(C)[C@H]2CC[C@@]1(C)O)CC/C=C(\C)C(=O)OCc1cn(-c2cccc(C)c2)nn1`: the IC50 in the assay with DU-145 was 137 µM; in [3] it was 13.4 µM; in the assay on L132, over 150 µM; with A549, over 150 µM; in the assay on SiHa, over 150 µM.

For `C/C(=C\CC/C(C)=C/CC[C@@H]1[C@@]2(C)CCC(=O)C(C)(C)[C@H]2CC[C@@]1(C)O)CC/C=C(\C)C(=O)OCc1cn(-c2ccccc2C(F)(F)F)nn1`, the IC50 was over 150 µM in the assay on DU-145; 14.5 µM in assay [3]; over 150 µM in the assay with L132; over 150 µM in the assay on A549; over 150 µM in the assay on MDA-MB-231.

`C/C(=C\CC/C(C)=C/CC[C@@H]1[C@@]2(C)CCC(=O)C(C)(C)[C@H]2CC[C@@]1(C)O)CC/C=C(\C)C(=O)OCc1cn(-c2ccc(F)c(Cl)c2)nn1`: the IC50 in assay [1] is 15.8 µM; with DU-145, over 150 µM; in assay [2], 7.83 µM; in [3], 10.1 µM; in the assay with L132, over 150 µM; in the assay with A549, over 150 µM. Further, the IC50 with PC-3 was found to be 22.9 µM.
